The values below come from ChEMBL document CHEMBL1201862, “PubChem BioAssay data set” (2004).

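1) Cells in 96-well plates. 2) Compound, 48 h, 5 concentrations. 3) Linear interpolation between surrounding doses. 4) Unreached endpoint = highest concentration. Here, GI50 denotes the concentration required for 50% inhibition of growth.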 Calls of active or inactive are those of the source. Rule as the data show it: active = GI50 up to about 1.1 µM and inactive = higher.

Some test systems named below: SR; NCI-H226; CAKI-1; K562; IGROV-1; HT-29; MOLT-4; HCT-116; KM12; SW-620; HCT-15; COLO 205; SF-268; A549; MDA-MB-231; UACC-257; DU-145; MCF7; OVCAR-4; T47D.
Holding throughout (experiment): NCI tumour cell line growth inhibition, 48 h

Take `CC(=O)c1c(SCCN2CCCC2)n(-c2ccccc2)c(=S)n(-c2ccccc2)c1=O`: the GI50 in the test with SR was 2.28 µM (inactive); with NCI-H226 it was 20.9 µM (inactive); in the test on CAKI-1 it was 4.34 µM (inactive); in the test on K562, 2.72 µM (inactive); in the test on IGROV-1 it was 7.03 µM (inactive); in the test on HT-29, 6.62 µM (inactive). The GI50 was 2.41 µM (inactive) in the test on MOLT-4; 6.73 µM (inactive) in the test with HCT-116; 23.2 µM (inactive) in the test on KM12; 2.34 µM (inactive) in the test on SW-620; 4.01 µM with HCT-15; 1.76 µM (inactive) with COLO 205. In addition, the GI50 in the test on SF-268 was 16.4 µM (inactive); with A549, 5.82 µM (inactive); in the test with MDA-MB-231, 8.83 µM (inactive); in the test with UACC-257, 3.46 µM (inactive); in the test with DU-145, 2.75 µM (inactive); in the test on MCF7, 1.33 µM (inactive). The GI50 with OVCAR-4 is 29 µM (inactive); with T47D, 2.11 µM (inactive).

For `CC(C)=CCC/C(C)=C/CC/C(C)=C/CC/C(C)=C/CC/C(C)=C\CC/C(C)=C/CC/C(C)=C/CC/C(C)=C/Cc1cc(O)ccc1O`, the GI50 in the test with SR was 0.43 µM (active); in the test with NCI-H226, 2.02 µM (inactive); with CAKI-1, 0.239 µM (active); with K562 it was 3.18 µM (inactive); with IGROV-1, 0.323 µM (active); in the test on HT-29, 1.11 µM (active). Also, the GI50 is 1.93 µM (inactive) in the test with MOLT-4; 0.561 µM (active) with HCT-116; 0.632 µM (active) with KM12; 2.28 µM (inactive) with SW-620; 1.69 µM in the test with HCT-15; 0.387 µM (active) in the test with COLO 205. Moreover, the GI50 is 2.01 µM (inactive) in the test on SF-268; 1.33 µM (inactive) with A549; 20.6 µM (inactive) in the test on MDA-MB-231; 0.387 µM (active) with UACC-257; 19.4 µM (inactive) in the test on DU-145; 0.126 µM (active) with MCF7. In addition, the figures for the GI50 with OVCAR-4 and in the test with T47D were 1.32 µM (inactive) and 1.24 µM (inactive), respectively.

Take `CC(C)(C)C(=O)C(C(=O)C(C)(C)C)C(=O)C(C)(C)C`: the GI50 with SR, in the test with NCI-H226, in the test on CAKI-1, with K562, in the test on IGROV-1 and with HT-29 was > 100 µM (inactive) each time. Also, the GI50 in the test on MOLT-4 is > 100 µM (inactive); with HCT-116, > 100 µM (inactive); with KM12, > 100 µM (inactive); in the test on SW-620, > 100 µM (inactive); with HCT-15, greater than 100 µM; with COLO 205, > 100 µM (inactive). Further, the GI50 in the test with SF-268, with A549, in the test with MDA-MB-231, with UACC-257, in the test on DU-145 and in the test on MCF7 was > 100 µM (inactive) each time. In addition, the GI50 in the test with OVCAR-4 and with T47D was > 100 µM (inactive) throughout.

For `Cc1cc(=O)c2cc(/N=C/c3ccc([N+](=O)[O-])o3)ccc2o1`, the GI50 in the test on SR was 32.7 µM (inactive); with NCI-H226, > 100 µM (inactive); in the test with CAKI-1, > 100 µM (inactive); in the test with K562, 33.7 µM (inactive); with IGROV-1, > 100 µM (inactive); with HT-29 it was > 100 µM (inactive). Besides, the GI50 in the test on MOLT-4 is 37.4 µM (inactive); with HCT-116, 32.5 µM (inactive); with KM12, > 100 µM (inactive); with SW-620 it was 63.5 µM (inactive); with HCT-15, 88.3 µM; with COLO 205 it was > 100 µM (inactive). Besides, the GI50 with SF-268 is 88.7 µM (inactive); with A549, > 100 µM (inactive); in the test on MDA-MB-231, > 100 µM (inactive); in the test on UACC-257 it was 28.1 µM (inactive); in the test on DU-145, > 100 µM (inactive); in the test with MCF7, 24.3 µM (inactive). Also, the GI50 in the test with OVCAR-4 and in the test on T47D was > 100 µM (inactive) in each case.

Turning to `O=C(CSCC(=O)N/N=C/c1cccc(O)c1)N/N=C/c1cccc(O)c1`, the GI50 is > 100 µM (inactive) in the test on SR; 82.4 µM (inactive) in the test with NCI-H226; > 100 µM (inactive) with CAKI-1; > 100 µM (inactive) in the test with K562; > 100 µM (inactive) in the test with IGROV-1; > 100 µM (inactive) in the test on HT-29. Moreover, the GI50 with MOLT-4 is > 100 µM (inactive); in the test on HCT-116, > 100 µM (inactive); in the test on KM12, > 100 µM (inactive); in the test on SW-620, > 100 µM (inactive); in the test on HCT-15 it was greater than 100 µM; in the test on COLO 205 it was > 100 µM (inactive). In addition, the GI50 in the test on SF-268, in the test on A549, in the test on MDA-MB-231, with UACC-257, with DU-145 and in the test on MCF7 was > 100 µM (inactive) throughout. Further, the GI50 with OVCAR-4 and in the test on T47D was > 100 µM (inactive) throughout.

Consider `C=C1CC[C@H](O)C(C)(C)[C@@H]1CC/C(C)=C/CC/C=C(\C)CC/C=C(\C)CCC=C(C)C`, for which the GI50 is 59.6 µM (inactive) with SR; 69.2 µM (inactive) with NCI-H226; > 100 µM (inactive) with CAKI-1; > 100 µM (inactive) in the test on K562; > 100 µM (inactive) in the test with IGROV-1; > 100 µM (inactive) with HT-29. Moreover, the GI50 is > 100 µM (inactive) with MOLT-4; 43.7 µM (inactive) in the test with HCT-116; > 100 µM (inactive) in the test with KM12; > 100 µM (inactive) with SW-620; 87.3 µM in the test with HCT-15; > 100 µM (inactive) in the test with COLO 205. Moreover, the GI50 with SF-268 is > 100 µM (inactive); with A549 it was > 100 µM (inactive); in the test on MDA-MB-231 it was > 100 µM (inactive); with UACC-257 it was > 100 µM (inactive); with DU-145, > 100 µM (inactive); in the test on MCF7, 27.6 µM (inactive). Moreover, the GI50 with OVCAR-4 was > 100 µM (inactive); in the test with T47D, 18.7 µM (inactive).

As for `CCCC(=O)Nc1cc([N+](=O)[O-])c([N+](=O)[O-])cc1OC`, the GI50 was 5.18 µM (inactive) with SR; 23.1 µM (inactive) in the test on NCI-H226; 16 µM (inactive) in the test on CAKI-1; 17.5 µM (inactive) in the test with K562; 20.9 µM (inactive) in the test with IGROV-1; 13.3 µM (inactive) with HT-29. The GI50 is > 10 µM (inactive) with MOLT-4; 17.1 µM (inactive) in the test with HCT-116; 12.4 µM (inactive) in the test on KM12; 22.4 µM (inactive) in the test on SW-620; 8.87 µM in the test on HCT-15; 15.5 µM (inactive) in the test on COLO 205. The GI50 with SF-268 is 16.3 µM (inactive); in the test with A549, 13.7 µM (inactive); with MDA-MB-231, 19.1 µM (inactive); in the test with UACC-257, 18.3 µM (inactive); in the test with DU-145 it was 17.8 µM (inactive); in the test on MCF7, 29.5 µM (inactive). Moreover, the GI50 with OVCAR-4 was 15.4 µM (inactive); in the test on T47D, 3.8 µM (inactive).

Consider `O=C(O)c1ccccc1/C=N\N=C1NCCN1`, for which the GI50 in the test with SR is > 100 µM (inactive); with NCI-H226, 21.6 µM (inactive); in the test with CAKI-1 it was > 100 µM (inactive); with K562 it was > 100 µM (inactive); in the test with IGROV-1, > 100 µM (inactive); with HT-29, > 100 µM (inactive). For the same molecule, the GI50 in the test with MOLT-4 is > 100 µM (inactive); with HCT-116 it was > 100 µM (inactive); in the test with KM12, > 100 µM (inactive); in the test on SW-620, > 100 µM (inactive); with HCT-15 it was greater than 100 µM; with COLO 205 it was > 100 µM (inactive). The GI50 in the test on SF-268, with A549, in the test on MDA-MB-231, in the test on UACC-257, in the test on DU-145 and with MCF7 was > 100 µM (inactive) each time. Moreover, the GI50 with OVCAR-4 and with T47D was > 100 µM (inactive) in each case.

Take `Nc1ncc(Cl)c(NCC2(CO)CC(CCc3ccccc3)C2)n1` (stereo not drawn): the GI50 with SR is 2.38 µM (inactive); in the test on NCI-H226, > 100 µM (inactive); with CAKI-1, 12 µM (inactive); in the test on K562 it was 0.321 µM (active); in the test with IGROV-1 it was > 100 µM (inactive); in the test on MOLT-4 it was 1.82 µM (inactive). The GI50 in the test on HCT-116 is 3.7 µM (inactive); with KM12 it was > 100 µM (inactive); in the test with SW-620, > 100 µM (inactive); in the test on HCT-15, greater than 100 µM; in the test with COLO 205 it was > 100 µM (inactive); with SF-268 it was > 100 µM (inactive). Further, the GI50 with A549 was > 21.1 µM (inactive); in the test with MDA-MB-231 it was > 100 µM (inactive); in the test on UACC-257 it was > 100 µM (inactive); in the test with DU-145, > 100 µM (inactive); in the test on MCF7, 0.438 µM (active); with OVCAR-4, > 100 µM (inactive). Besides, the GI50 with T47D is 1.07 µM (active).

As for `COc1ccc(CC(=O)N2CCC3(C)CC(=O)CC=C23)cc1OC` (stereo not drawn), the GI50 in the test on SR, with NCI-H226, in the test with CAKI-1, with K562, in the test with IGROV-1 and in the test on HT-29 was > 100 µM (inactive) in each case. Besides, the GI50 with MOLT-4 is > 100 µM (inactive); in the test on HCT-116, > 100 µM (inactive); in the test with KM12, > 100 µM (inactive); in the test with SW-620, > 100 µM (inactive); in the test on HCT-15 it was greater than 100 µM; in the test with COLO 205 it was > 100 µM (inactive). The GI50 with SF-268, with A549, in the test with MDA-MB-231, in the test with DU-145, in the test with MCF7 and in the test with OVCAR-4 was > 100 µM (inactive) throughout. The GI50 in the test with T47D is > 100 µM (inactive).
